Reference: patent US7276480B1, “Prevention and reduction of blood loss” (Dyax Corp., priority 2005, dated 2007)
No end group written: not given here.

Target: human plasma kallikrein (Homo sapiens, UniProt P03952)
Experiment: Affinity (Ki,app) for plasma proteases, Table 1
Format: biochemical

Sequence of human plasma kallikrein (P03952 391-638 limits assumed): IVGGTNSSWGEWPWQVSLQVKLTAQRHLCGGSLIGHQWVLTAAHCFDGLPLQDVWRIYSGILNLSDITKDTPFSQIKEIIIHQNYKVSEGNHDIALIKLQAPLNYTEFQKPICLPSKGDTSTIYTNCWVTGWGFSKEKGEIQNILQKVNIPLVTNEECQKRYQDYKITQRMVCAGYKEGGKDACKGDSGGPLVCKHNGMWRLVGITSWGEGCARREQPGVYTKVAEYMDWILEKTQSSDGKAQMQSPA
Sequence of human plasma kallikrein (P03952 20-390 limits assumed): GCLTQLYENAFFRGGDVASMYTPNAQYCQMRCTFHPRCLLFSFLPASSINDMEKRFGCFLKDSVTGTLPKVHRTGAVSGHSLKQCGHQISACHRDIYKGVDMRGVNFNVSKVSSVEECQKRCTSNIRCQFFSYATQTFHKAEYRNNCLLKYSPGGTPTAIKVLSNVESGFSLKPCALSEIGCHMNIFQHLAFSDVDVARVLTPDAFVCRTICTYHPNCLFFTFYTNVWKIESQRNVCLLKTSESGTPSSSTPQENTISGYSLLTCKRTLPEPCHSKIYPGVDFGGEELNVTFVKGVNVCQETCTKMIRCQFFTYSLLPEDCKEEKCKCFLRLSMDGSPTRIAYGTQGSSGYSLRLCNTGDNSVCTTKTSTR

Substance	concentration in the plasma required to inhibit 99% of the kallikrein at 1 nM (kallikrein 1 nM, 99% inhibition)	Ki (read-out: Ki,app, human plasma kallikrein) [nM]	specificity among kallikrein and eleven other plasma proteases (from Table 1)	affinity (Ki,app) for kallikrein relative to the affinity of aprotinin (ratio versus aprotinin) [times higher]
aprotinin	at least 3 mu.M	30	–	–
PEP-1: non-naturally occurring KI polypeptide, 60-amino acid sequence of SEQ ID NO:2, recombinant from Pichia pastoris (EAMHSFCAFKADDGPCRAAHPRWFFNIFTRQCEEFIYGGCEGNQNRFESLEECKKMCTRD; ends and bridges not checked; cysteine pairing not given here)	–	–	highly specific for human plasma kallikrein	1000
